Literature values as cited in patent publication US9642799B2, “Crystalline 6-(2-((4-amino-3-(3-hydroxyphenyl)-1H-pyrazolo[3,4-D]pyrimidin-1-yl)methyl)-3-(2-chlorobenzyl)-4-0X0-3,4-dihydroquinazolin-5-yl)-N,N-bis(2-methoxyethyl)hex-5-ynamide” (Respivert Limited, priority 2012, dated 2017).

Tests used:
[1] = system: ovalbumin-sensitized, ovalbumin-challenged mice
mice = conditions: stimulated by TNFα
murine model = conditions: administered by aerosolisation
[2] = elicited by either LPS or cigarette smoke

Row | Structure (SMILES) | airways hyper-responsiveness, IgE release, pro-inflammatory cytokine expression, inflammatory cell accumulation into the lung and vascular permeability [1] | neutrophil accumulation in the lungs and neutrophil function (mice) | pulmonary eosinophilia, interleukin-13, mucin accumulation and airways hyperesponsiveness (murine model) | pulmonary neutrophilia [2]
1 | Cc1ccccc1-n1c(Cn2cnc3c(N)ncnc32)nc2cccc(C)c2c1=O [IC-87114] | found to inhibit | lowered |  | 
2 | Nc1nc(N)c2nc(-c3cccc(O)c3)c(-c3cccc(O)c3)nc2n1 [TG100-115] |  |  | reported to inhibit | able to inhibit
